Values quoted from earlier work in patent US10053407B2, “Crystalline cannabidivarin” (S&B Pharma, Inc., priority 2016, dated 2018).

System: epilepsy
Conditions: animal studies; 50 and 100 mg/kg, delivered intra-peritoneally; cannabidivarin prepared by non-synthetic methods

SMILES: C=C(C)[C@@H]1CCC(C)=C[C@H]1c1c(O)cc(CCC)cc1O [cannabidivarin]
- mortality: effective in reducing mortality
